Experimental data reported in the supplement of paper PMC5908809.

What was measured:
[1] = tested on: normal NK cells expanded with K562-aAPC; test: drug sensitivity score (DSS) (DSS units); higher = more sensitive; extreme values may be limits of the assay; conditions: 72 h; IL-2 2.5 ng/mL
Procedure: (§1)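 Drug sensitivity and resistance testing on K562-aAPC-expanded normal NK cells: 5 concentrations (10-fold steps over a 10,000-fold range), 72 h at 37 °C, viability by CellTiter-Glo normalised to DMSO and benzethonium chloride controls; DSS from the fitted curve.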

[2] = tested on: NK-YS (IL-2 2.5 ng/mL); test: as above; conditions: 72 h
[3] = tested on: KHYG-1 (IL-2 2.5 ng/mL); test: as above; conditions: 72 h
[4] = tested on: normal primary NK cells, pool 1 (3 donors), resting (IL-2 0 ng/mL); test: as above; conditions: 72 h
[5] = tested on: normal primary NK cells, pool 1 (3 donors) (IL-2 2.5 ng/mL); test: as above; conditions: 72 h
[6] = tested on: YT (IL-2 2.5 ng/mL); test: as above; conditions: 72 h
[7] = tested on: DERL-7 (IL-2 2.5 ng/mL); test: as above; conditions: 72 h
[8] = tested on: KAI3 (IL-2 2.5 ng/mL); test: as above; conditions: 72 h
[9] = tested on: NKL (IL-2 2.5 ng/mL); test: as above; conditions: 72 h
[10] = tested on: SNK-6 (IL-2 2.5 ng/mL); test: as above; conditions: 72 h
[11] = tested on: IMC-1 (IL-2 20 ng/mL); test: as above; conditions: 72 h
[12] = tested on: normal primary NK cells, pool 3 (3 donors) (IL-2 2.5 ng/mL); test: as above; conditions: 72 h
[13] = tested on: NK-92 (IL-2 2.5 ng/mL); test: as above; conditions: 72 h
[14] = tested on: normal primary NK cells, pool 2 (3 donors) (IL-2 2.5 ng/mL); test: as above; conditions: 72 h
[15] = tested on: NK-YS (IL-2 2.5 ng/mL); test: percent inhibition of viability; higher = more inhibition; conditions: 72 h
[16] = tested on: KHYG-1 (IL-2 2.5 ng/mL); test: as above; conditions: 72 h
[17] = tested on: normal primary NK cells, pool 1 (3 donors), resting (IL-2 0 ng/mL); test: as above; conditions: 72 h
[18] = tested on: normal primary NK cells, pool 1 (3 donors) (IL-2 2.5 ng/mL); test: as above; conditions: 72 h
[19] = tested on: YT (IL-2 2.5 ng/mL); test: as above; conditions: 72 h
[20] = tested on: DERL-7 (IL-2 2.5 ng/mL); test: as above; conditions: 72 h
[21] = tested on: KAI3 (IL-2 2.5 ng/mL); test: as above; conditions: 72 h
[22] = tested on: NKL (IL-2 2.5 ng/mL); test: as above; conditions: 72 h
[23] = tested on: SNK-6 (IL-2 2.5 ng/mL); test: as above; conditions: 72 h
[24] = tested on: IMC-1 (IL-2 20 ng/mL); test: as above; conditions: 72 h
[25] = tested on: normal primary NK cells, pool 3 (3 donors) (IL-2 2.5 ng/mL); test: as above; conditions: 72 h
[26] = tested on: NK-92 (IL-2 2.5 ng/mL); test: as above; conditions: 72 h
[27] = tested on: normal primary NK cells, pool 2 (3 donors) (IL-2 2.5 ng/mL); test: as above; conditions: 72 h
[28] = tested on: normal NK cells expanded with K562-aAPC; test: as above; conditions: 72 h, IL-2 2.5 ng/mL
Procedure: as §1

CCCCC/C=C/C=C1/C(=O)C=C[C@@H]1C/C=C\CCCC(=O)O [15D-PGJ2] (max concentration tested 3000 nM)
Conditions | drug sensitivity score
[1] | 1.44
[2] | 0
[3] | 0
[4] | 0
[5] | 0.07
[6] | 0.01
[7] | 0.17
[8] | 0.28
[9] | 0
[10] | 1.74
[11] | 0
[12] | 0.13
[13] | 0.46
[14] | 0.45

percent inhibition of viability [%]
Conditions | 0.3 nM | 3 nM | 30 nM | 300 nM | 3000 nM
[15] | 2.56 | 5.36 | 6.24 | 9.44 | 10.4
[16] | -5.02 | 1.78 | 4.62 | 3.59 | 4.59
[17] | 6.38 | -19 | 3.5 | -8.64 | 11.8
[18] | 8.24 | -4.33 | -3.39 | -9.81 | 14
[19] | -2.94 | -0.98 | -4.25 | -6.3 | 12.1
[20] | 3.37 | -0.28 | -1.84 | -0.56 | 14.4
[21] | -4.96 | -2.91 | -5.31 | -1.28 | 16.5
[22] | -9.35 | -3.21 | -6.49 | 3.89 | -15.1
[23] | 1.92 | 3.18 | 18.9 | 6.05 | 19.9
[24] | -2.09 | 2.04 | 0.05 | 5.09 | 1.41
[25] | -15.9 | -3.38 | 4.01 | -2.88 | 14.8
[26] | -11 | -12 | -5.46 | 5.82 | 13.3
[27] | -13.3 | -1.17 | 5.71 | 0.83 | 16.9
[28] | -3.92 | -2.07 | 0.09 | 7.83 | 19.8
